25 compounds from patent publication US5461049A, “Amide tetrazole ACAT inhibitors” (Warner-Lambert Company, priority 1994, dated 1995) can be followed below.

Assay [1] concerns the target T1, acyl-CoA: cholesterol acyltransferase (ACAT) (Rattus norvegicus, UniProt Q7TQM4).
T1 construct: tissue preparation containing rat liver microsomes; from tissue; host or cells: rat liver microsomes
T1 sequence (Q7TQM4 1-524): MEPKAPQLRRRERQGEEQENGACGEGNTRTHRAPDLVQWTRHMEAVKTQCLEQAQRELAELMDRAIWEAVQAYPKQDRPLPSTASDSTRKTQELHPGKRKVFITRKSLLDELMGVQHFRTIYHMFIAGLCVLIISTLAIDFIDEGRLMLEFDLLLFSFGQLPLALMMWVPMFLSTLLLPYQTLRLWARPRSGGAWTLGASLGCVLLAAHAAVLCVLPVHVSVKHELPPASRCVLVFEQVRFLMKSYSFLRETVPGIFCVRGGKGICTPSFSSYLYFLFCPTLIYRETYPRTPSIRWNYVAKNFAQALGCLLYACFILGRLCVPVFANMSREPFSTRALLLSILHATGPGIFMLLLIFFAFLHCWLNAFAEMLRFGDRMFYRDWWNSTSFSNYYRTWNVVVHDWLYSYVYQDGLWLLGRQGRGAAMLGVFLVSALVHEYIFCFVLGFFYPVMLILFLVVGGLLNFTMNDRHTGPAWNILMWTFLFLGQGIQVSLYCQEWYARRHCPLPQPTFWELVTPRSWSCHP
The experiment in a line: ACAT inhibition in vitro (LAI): radiolabeled cholesterol oleate formed from radiolabeled oleic acid in rat liver microsomes. The conditions noted are these: concentration required to inhibit the activity of the enzyme by 50%. The format is biochemical. As to the method:
The ability of representative compounds of the present invention to inhibit ACAT was measured using an in vitro test more fully described in F. J. Field and R. G. Salone, Biochemica et Biophysica Acta, 712:557-570 (1982). The test assesses the ability of a test compound to inhibit the acylation of cholesterol by oleic acid by measuring the amount of radiolabeled cholesterol oleate formed from radiolabeled oleic acid in a tissue preparation containing rat liver microsomes (designated LAI).

A short description of assay [2]: APCC in vivo screen: change in total cholesterol in rats on high fat, high cholesterol diet. Set-up: species or system male Sprague-Dawley rats. The conditions noted are these: Rattus norvegicus, po, 16 h; 30 mg/kg by gavage, single dose at 4 PM, sacrificed at 8 AM; 5.5% peanut oil, 1.5% cholesterol, 0.5% cholic acid diet; vs control animals given vehicle and diet only; read-out: APCC (% change in TC). The text has this: In one in vivo screen designated APCC, male Sprague-Dawley rats (200-225 g body weight) were randomly divided into treatment groups and dosed at 4 PM with either vehicle (CMC/Tween) or suspensions of invention compounds in vehicle. The normal chow diet was then replaced with a high fat, high cholesterol diet (5.5% peanut oil, 1.5% cholesterol, and 0.5% cholic acid). The rats consumed this diet ad libitum during the night and were sacrificed at 8 AM to obtain blood samples for cholesterol analysis using standard procedures. Statistical differences between mean cholesterol values for the same vehicle were determined using analysis of variance followed by Fisher's least significant test. The results of this trial for representative compounds of the present invention also appear in Table I as the percent change in total cholesterol (%TC) from control animals given vehicle and diet only. All compounds in the APCC test reported in Table 1 were administered by garage at 30 mg/kg.

The term IC50 denotes the point on the concentration scale where inhibition reaches its midpoint. A higher IC50 goes with weaker potency in that assay. In assay [1], `CCCCCCCCCCCCn1nnc(C(C(=O)Nc2c(C(C)C)cccc2C(C)C)N2CCSCC2)n1` (racemic) [Example 1, (±)-N-(2,6-diisopropylphenyl) -2-(2-dodecyl-2H-tetrazol-5-yl) -2-thiomorpholin-4-yl-acetamide] had a concentration for half-maximal inhibition (IC50) of 12 nM. Also, the change in vivo at 30 mg/kg in assay [2] was -56%.
`CCCCCCCCCCCCn1nnc(C(C(=O)Nc2c(C(C)C)cccc2C(C)C)N2CCOCC2)n1` (racemic) [Example 2, (±)-N-(2,6-Diisopropylphenyl)-2-(2-dodecyl-2H-tetrazol-5-yl)-2-morpholino-4-yl-acetamide] returned a half-maximal inhibitory concentration (IC50) in assay [1] of 18 nM. For the same compound, the change in vivo at 30 mg/kg in assay [2] is -57%.
On the same counts, the results for `CCCCCCCCCCCCn1nnc(C(C(=O)Nc2c(C(C)C)cccc2C(C)C)N2CCCCC2)n1` (racemic) [Example 3, (±)-N-(2,6-Diisopropylphenyl)-2-(2-dodecyl-2H-tetrazol-5-yl)-2-piperidin-1-yl-acetamide] are 15 nM and -47%.
On the same counts, the results for `CCCCCCCCCCCCn1nnc(C(C(=O)Nc2c(C(C)C)cccc2C(C)C)N2CCCC2)n1` (racemic) [Example 4, (±) -N-(2,6-Diisopropylphenyl)-2-(2-dodecyl-2H-tetrazol-5-yl) -2-pyrrolidinyl-1-yl-acetamide] are 9 nM and -59%.
For the compound `CCCCCCCCCCCCn1nnc(C(C(=O)Nc2c(C(C)C)cccc2C(C)C)n2ccnc2)n1` (racemic) [Example 5, (±)-N-(2,6-Diisopropylphenyl)-2-(2-dodecyl-2H-tetrazol-5-yl) -2-imidazol-1-yl-acetamide], in assay [1], the half-inhibitory concentration (IC50) is 215 nM. The change in vivo at 30 mg/kg in assay [2] is -46%.
`CCCCCCCCCCCCn1nnc(C(C(=O)Nc2c(C(C)C)cccc2C(C)C)N2CCN(C)CC2)n1` (racemic) [Example 6, (±)-N-(2,6-Diisopropylphenyl)-2-(2-dodecyl-2-tetrazol-5-yl)-2-(4-methyl-piperazin-1-yl)-acetamide] displayed an IC50 in assay [1] of 86 nM. The change in vivo at 30 mg/kg in assay [2] was -51%.
In turn, `CCCCCCCCCCCCn1nnc(C(C(=O)Nc2c(C(C)C)cccc2C(C)C)N(CC)CC)n1` (racemic) [Example 7, (±)-2-Diethylamino-N-(2,6-diisopropylphenyl) -2-(2-dodecyl-2H-tetrazol-5-yl)-acetamide] returned an IC50 in assay [1] of 32 nM. Further, the change in vivo at 30 mg/kg in assay [2] is -28%.
On the same counts, the results for `CCCCCCCCCCCCn1nnc(C(C(=O)Nc2c(C(C)C)cccc2C(C)C)N(CCO)CCO)n1` (racemic) [Example 8, (±)-2-[Bis-(2-hydroxyethyl)-amino]-N-(2,6-diisopropylphenyl) -2-(2-dodecyl-2H-tetrazol-5-yl)-acetamide] are 390 nM and -11%.
On the same counts, the results for `CCCCCCCCCCCCn1nnc(C(C(=O)Nc2c(C(C)C)cccc2C(C)C)N(C)C)n1` (racemic) [Example 9, (±)-N-(2,6-Diisopropylphenyl)-2-dimethylamino-(2-dodecyl-2H-tetrazol-5-yl)-acetamide] are 40 nM and -40%.
With `CCCCCCCCCCCCn1nnc(C(N)C(=O)Nc2c(C(C)C)cccc2C(C)C)n1` (racemic) [Example 10, (±)-2-Amino-N-(2,6-diisopropylphenyl)-2-(2-dodecyl-2H-tetrazol-5-yl)-acetamide], the concentration for half-maximal inhibition (IC50) in assay [1] worked out at 94 nM. Also, in assay [2], the change in vivo at 30 mg/kg was -51%.
`CCCCCCCCCCCCn1nnc(C(C(=O)Nc2c(OC)cc(OC)cc2OC)N2CCCC2)n1` (racemic) [Example 17, (±)-N-(2,4,6-trimethoxyphenyl) -2-(2-dodecyl-2H-tetrazol-5-yl)-2-pyrrolidin-1-yl-acetamide] displayed an IC50 in assay [1] of 40 nM. The change in vivo at 30 mg/kg in assay [2] was -67%.
Consider `CCCCCCCCCCCCn1nnc(C(C(=O)Nc2c(C(C)C)cc(C(C)C)cc2C(C)C)N2CCCC2)n1` (racemic) [Example 18, (±)-N-2,4,6-triisopropylphenyl-2-(2-dodecyl-2H-tetrazol-5-yl)-2-pyrrolidin-1-yl-acetamide], for which, in assay [1], the concentration for half-maximal inhibition (IC50) came out at 222 nM. Also, the change in vivo at 30 mg/kg in assay [2] is -20%.
On the same counts, the results for `CCCCCCCCCCCCn1nnc(C(NC(C)=O)C(=O)Nc2c(C(C)C)cccc2C(C)C)n1` (racemic) [Example 32, (±)-N-(2,6-diisopropylphenyl)-2-(2-dodecyl-2H-tetrazol-5-yl)-2-acetylamino-acetamide] are > 1000 nM and -9%.
On to `CCCCCCCCCCCCn1nnc(C(NC2CCCCC2)C(=O)Nc2c(C(C)C)cccc2C(C)C)n1` (racemic) [Example 36, (±)-N-(2,6-diisopropylphenyl)-2-(2-dodecyl-2H-tetrazol-5-yl)-2-cyclohexylamino-acetamide], for which, in assay [1], the IC50 is 212 nM.
For `CCCCCCCCCCCCn1nnc(C(=O)C(=O)Nc2c(C(C)C)cccc2C(C)C)n1` [Example 11, N-(2,6-diisopropylphenyl)-2-(2-dodecyl-2H-tetrazol-5-yl)-2-oxo-acetamide], inhibition in assay [1] was half-maximal at 135 nM (IC50). Also, in assay [2], the change in vivo at 30 mg/kg was -50%.
In assay [1], `CCCCCCCCCCCCn1nnc(C(=NO)C(=O)Nc2c(C(C)C)cccc2C(C)C)n1` [Example 12, N-(2,6-diisopropylphenyl)-2-(2-dodecyl-2H-tetrazol-5-yl)-2-hydroxyimino-acetamide] returned an IC50 of 29 nM.
`CCCCCCCCCCCCn1nnc(/C(=N\OC)C(=O)Nc2c(C(C)C)cccc2C(C)C)n1` [Example 13, E-N-(2,6-Diisopropylphenyl)-2-(2-dodecyl-2H-tetrazol-5-yl)-2-methoxyimino-acetamide] yielded a half-inhibitory concentration (IC50) in assay [1] of 2 nM. Also, the change in vivo at 30 mg/kg in assay [2] was -43%.
On the same counts, the results for `CCCCCCCCCCCCn1nnc(/C(=N/OC)C(=O)Nc2c(C(C)C)cccc2C(C)C)n1` [Example 14, Z-N-(2,6-diisopropylphenyl) -2-(2-dodecyl-2H-tetrazol-5-yl)-2-methoxyiminoacetamide] are 40 nM and -19%.
On the same counts, the results for `CCCCCCCCCCCCn1nnc(/C(=N\OC)C(=O)Nc2c(OC)cc(OC)cc2OC)n1` [Example 15, E-2-(2-Dodecyl-2H-tetrazol-5-yl)-2-methoxyimino -N-(2,4,6-trimethoxyphenyl)-acetamide] are 28 nM and -70%.
`CCCCCCCCCCC(C)n1nnc(/C(=N\OC)C(=O)Nc2c(C(C)C)cccc2C(C)C)n1` (centres unmarked) [Example 16, E-N-(2,6-Diisopropylphenyl)-2-(2-(1-methylundecyl) -2H-tetrazol-5-yl)-2-methoxyimino-acetamide] showed a concentration for half-maximal inhibition (IC50) in assay [1] of 3 nM. The change in vivo at 30 mg/kg in assay [2] is -67%.
On the same counts, the results for `CCCCCCCCCCCCn1nnc(/C(=N/OCC)C(=O)Nc2c(C(C)C)cccc2C(C)C)n1` [Example 23, Z-N-(2,6-diisopropylphenyl) -2-(2-dodecyl-2H-tetrazol-5-yl)-2-ethoxyimino-acetamide] are 2 nM and -74%.
On the same counts, the results for `CCCCCCCCCCCCn1nnc(/C(=N\OCC)C(=O)Nc2c(C(C)C)cccc2C(C)C)n1` [Example 24, E-isomer of N-(2,6-diisopropylphenyl)-2-(2-dodecyl-2H-tetrazol-5-yl)-2-ethoxyimino-acetamide] are 49 nM and -31%.
For `CCCCCCCCCCCCn1nnc(C(=NN)C(=O)Nc2c(C(C)C)cccc2C(C)C)n1` [Example 27, N-(2,6-diisopropylphenyl)-2-(2 dodecyl-2H-tetrazol-5-yl)-2-hydrazono-acetamide], the IC50 in assay [1] amounted to 510 nM.
Take `CCCCCCCCCCCCn1nnc(C(=NNc2ccccc2)C(=O)Nc2c(C(C)C)cccc2C(C)C)n1` [Example 28, N-(2,6-diisopropylphenyl)-2-(2-dodecyl-2H-tetrazol-5-yl)-2-phenylhydrazono-acetamide]: the half-inhibitory concentration (IC50) in assay [1] is 150 nM. Further, the change in vivo at 30 mg/kg in assay [2] is -18%.
On the same counts, the results for `CCCCCCCCCCCCn1nnc(C(=NN(C)C)C(=O)Nc2c(C(C)C)cccc2C(C)C)n1` [Example 29, N-(2,6-diisopropylphenyl)-2-(2-dodecyl-2H-tetrazol-5-yl)-2-dimethylhydrazono-acetamide] are 43 nM and -70%.
